Results from patent US20050154230A1, “Urea derivatives” (Bayer HealthCare AG, priority 2001, published 2005).
Read-outs that look alike come from different tables or passages of the source.

Columns and labels:
human VR1 = molecular target: T1, human VR1 (Homo sapiens, UniProt Q8NER1); assay: Capsaicin-induced Ca2+ influx in the human VR1-transfected CHO cell line (Assay 1); type: cell-based
T1 construct: expressed in transfected cells
Procedure: [Measurement of Capsaicin-Induced Ca^2+ Influx in the Human VR1-Transfected CHO Cell Line] (Assay 1)
(1) Establishment of the Human VR1-CHOluc9aeq Cell Line
The cloned hVR1 cDNA was constructed with pcDNA3 vector and transfected into a CHOluc9aeq cell line. The cell line contains aequorin and CRE-luciferase reporter genes as read-out signals. The transfectants were cloned by limiting dilution in selection medium (DMEM/F12 medium (Gibco BRL) supplemented with 10% FCS, 1.4 mM Sodium pyruvate, 20 mM HEPES, 0.15% Sodium bicarbonate, 100 U/ml penicillin, 100 μg/ml streptomycin, 2 mM glutamine, non-essential amino acids and 2 mg/ml G418). Ca^2+ influx was examined in the capsaicin-stimulated clones. […] The human VR1-CHOluc9aeq cells were maintained in the selection medium and passaged every 3-4 days at 1-2.5×10^5 cells/flask ([…]).
(2) Measurement of Ca^2+ Influx Using FDSS-3000
Human VR1-CHOluc9aeq cells were suspended in a culture medium which is the same as the selection medium except for G418 and seeded at a density of 1,000 cells per well into 384-well plates (black walled clear-base/Nalge Nunc International). […] After washing twice with assay buffer the cells were incubated with a test compound or vehicle for 20 min at 25° C. […] Integral R was calculated and compared with controls.

[1] = human VR1-CHOluc9aeq cells, 10 nM capsaicin, compound purity about 40 to 90%, read-out: hVR1 class

T1 sequence (Q8NER1 whole entry): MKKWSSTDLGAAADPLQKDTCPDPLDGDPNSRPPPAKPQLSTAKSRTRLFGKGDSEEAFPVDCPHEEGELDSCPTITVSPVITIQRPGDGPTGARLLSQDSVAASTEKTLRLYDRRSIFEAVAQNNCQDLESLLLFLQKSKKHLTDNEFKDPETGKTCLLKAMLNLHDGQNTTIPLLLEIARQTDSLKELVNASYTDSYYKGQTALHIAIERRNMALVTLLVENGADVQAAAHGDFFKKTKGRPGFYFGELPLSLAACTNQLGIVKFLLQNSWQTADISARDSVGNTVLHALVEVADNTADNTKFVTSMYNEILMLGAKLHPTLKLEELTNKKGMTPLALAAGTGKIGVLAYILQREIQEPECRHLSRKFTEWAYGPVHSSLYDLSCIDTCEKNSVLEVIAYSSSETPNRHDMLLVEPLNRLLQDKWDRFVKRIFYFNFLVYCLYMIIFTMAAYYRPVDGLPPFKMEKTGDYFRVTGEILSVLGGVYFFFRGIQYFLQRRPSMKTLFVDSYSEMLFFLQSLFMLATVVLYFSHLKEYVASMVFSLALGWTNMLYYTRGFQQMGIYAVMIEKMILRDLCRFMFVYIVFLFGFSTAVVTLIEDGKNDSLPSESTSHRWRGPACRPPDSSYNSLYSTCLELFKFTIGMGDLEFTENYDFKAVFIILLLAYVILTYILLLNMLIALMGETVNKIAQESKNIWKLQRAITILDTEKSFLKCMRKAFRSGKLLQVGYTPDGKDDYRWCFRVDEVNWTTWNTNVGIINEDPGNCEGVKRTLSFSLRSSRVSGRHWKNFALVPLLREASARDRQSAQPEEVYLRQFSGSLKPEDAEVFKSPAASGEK

| Structure (SMILES) | IC50 (human VR1; [1]) | melting point | IC50 (human VR1) |
| --- | --- | --- | --- |
| COc1ccc(OC)c(NC(=O)Nc2ccccc2CCO)c1 [Example 151] | 500 to 1000 nM | 157 to 158 °C |  |
| O=C(Nc1ccccc1CCO)Nc1ccccc1C(F)(F)F [Example 152] | 500 to 1000 nM | 180 to 182 °C |  |
| O=C(NCc1ccccc1)Nc1ccccc1CCO [Example 153] | 500 to 1000 nM | 149 to 150 °C |  |
| O=C(Nc1cc(Cl)nc(Cl)c1)Nc1ccccc1CCO [Example 154] | 500 to 1000 nM | 194 °C |  |
| CC(NC(=O)Nc1ccccc1CCO)c1cccc2ccccc12 (stereo not drawn) [Example 155] | 500 to 1000 nM | 176 °C |  |
| CSc1ccc(NC(=O)Nc2ccccc2CCO)cc1 [Example 156] | 500 to 1000 nM | 176 to 177 °C |  |
| O=C(Nc1ccccc1CCO)Nc1ccccc1Cc1ccccc1 [Example 157] | 500 to 1000 nM | 162 to 164 °C |  |
| O=C(Nc1ccc(Cc2ccccc2)cc1)Nc1ccccc1CCO [Example 158] | 100 to 500 nM | 164 to 166 °C |  |
| O=C(Nc1ccc(Nc2ccccc2)cc1)Nc1ccccc1CCO [Example 159] | 500 to 1000 nM | 150 to 151 °C |  |
| O=C(Nc1ccccc1CCO)Nc1ccccc1Oc1ccccc1 [Example 160] | 500 to 1000 nM | 190 to 191 °C |  |
| N#Cc1ccc(-c2ccc(NC(=O)Nc3ccccc3CCO)cc2)cc1 [Example 161] | 500 to 1000 nM | 213 to 215 °C |  |
| Cc1ccc2ccccc2c1NC(=O)Nc1ccccc1CCO [Example 164] | 500 to 1000 nM | 204 °C |  |
| Cc1ccc2cc(NC(=O)Nc3ccccc3CCO)ccc2n1 [Example 165] | 500 to 1000 nM | 207 °C |  |
| O=C(Nc1ccccc1CCO)Nc1cccc2ccc(O)cc12 [Example 166] | 500 to 1000 nM | 212 °C |  |
| O=C(Nc1ccc(N2CCCCC2)cc1)Nc1ccccc1CCO [Example 168] | 500 to 1000 nM | 188 °C |  |
| O=C(Nc1ccc2c(c1)Cc1ccccc1-2)Nc1ccccc1CCO [Example 169] | < 100 nM | > 250 °C |  |
| O=C(Nc1cccc(Oc2ccccc2)c1)Nc1ccccc1CCO [Example 171] | < 100 nM | 145 to 146 °C |  |
| CCn1c2ccccc2c2cc(NC(=O)Nc3ccccc3CCO)ccc21 [Example 172] | < 100 nM | 224 to 226 °C |  |
| COc1ccc(-c2ccccc2)cc1NC(=O)Nc1ccccc1CCO [Example 173] | 100 to 500 nM | 178 to 180 °C |  |
| O=C(Nc1cccc(OCc2ccccc2)c1)Nc1ccccc1CCO [Example 174] | < 100 nM | 146 to 148 °C |  |
| Cc1ccccc1Oc1ccccc1NC(=O)Nc1ccccc1CCO [Example 175] | 500 to 1000 nM | 170 to 172 °C |  |
| Cc1ccc(Oc2ccc(NC(=O)Nc3ccccc3CCO)cc2)cc1 [Example 176] | < 100 nM | 164 to 168 °C (dec.) |  |
| O=C(Nc1ccc(F)c(F)c1)Nc1ccccc1CCO [Example 179] | 500 to 1000 nM | 162 to 164 °C |  |
| O=C(Nc1cc(F)cc(F)c1)Nc1ccccc1CCO [Example 180] | 100 to 500 nM | 188 to 189 °C |  |
| Cc1ccc(NC(=O)Nc2ccccc2CCO)cc1F [Example 181] | 500 to 1000 nM | 184 to 186 °C |  |
| O=C(Nc1ccccc1CCO)Nc1cccc(F)c1F [Example 182] | 500 to 1000 nM | 159 to 161 °C |  |
| O=C(Nc1cc(F)c(F)cc1F)Nc1ccccc1CCO [Example 183] | 500 to 1000 nM | 172 to 174 °C |  |
| O=C(Nc1ccc(F)c(C(F)(F)F)c1)Nc1ccccc1CCO [Example 184] | < 100 nM | 158 to 161 °C (dec.) |  |
| O=C(Nc1ccc(Br)c(C(F)(F)F)c1)Nc1ccccc1CCO [Example 185] | < 100 nM | 161 to 164 °C |  |
| N#Cc1ccc(NC(=O)Nc2ccccc2CCO)cc1C(F)(F)F [Example 186] |  | 171 °C | < 100 nM |
